Measurements reported in patent publication US20130217085A1, “METHODS FOR IMPROVING FERMENTATION YIELD OF POLYUNSATURATED FATTY ACIDS” (NANJING UNIVERSITY OF TECHNOLOGY, priority 2010, published 2013).

Test system: Schizochytrium limacinum HX-308
Assay: Shake-flask fermentation of Schizochytrium limacinum HX-308 with exogenous compatible solute added to the fermentation medium (fatty acid composition, DHA yield, biomass)
Format: cell-based
From the text: The detection method of the following Examples is the same as that in the application titled “Schizochytrium limacinum and method of production of DHA oil using the same” (Application No. 200910033869.5) The strain is Schizochytrium limacinum HX-308 with deposit number CCTCC No. M209059. Seed medium: D-glucose 40 g/L, yeast extract 2 g/L, sodium glutamate 10 g/L, MgCl2 3 g/L, CaCl2·2H2O 1 g/L, KH2PO4 4 g/L, KCl 2 g/L, NaCl 15 g/L, MgSO4·7H2O 5 g/L, FeCl3 0.1 g/L. (See “A Schizochytrium limacinum and method of production of DHA oil using the same” (Application No. 200910033869.5)). Fermentation medium: D-glucose 40 g/L, yeast extract 2 g/L, sodium glutamate 10 g/L, MgCl2 3 g/L, (NH4)2SO4 6 g/L, KH2PO4 4 g/L, KCl 2 g/L, NaCl 15 g/L, MgSO4·7H2O 5 g/L, FeCl3 0.1 g/L. (See “A Schizochytrium limacinum and method of production of DHA oil using the same” (Application No. 200910033869.5)). Cultural method: strain was inoculated into seed medium with inoculation amount of 5% (v/v), cultured in a 500 mL shake flask for 24 h to log phase under 170 r at 25° C., and inoculated into the fermentation medium with addition of a certain amount of glycine betaine (such as 10 mmol/L, 40 mmol/L, 70 mmol/L, 100 mmol/L) in inoculation amount of 9% (v/v) for culturing; fermentation ceased when glucose reached an amount of 0 g/L. The results are shown in Table 1. The strain is Schizochytrium limacinum HX-308 with deposit number CCTCC No. M209059. Seed medium: D-glucose 40 g/L, yeast extract 2 g/L, sodium glutamate 10 g/L, MgCl2 3 g/L, CaCl2·2H2O 1 g/L, KH2PO4 4 g/L, KCl 2 g/L, NaCl 15 g/L, MgSO4·7H2O 5 g/L, FeCl3 0.1 g/L. Fermentation medium: D-glucose 40 g/L, yeast extract 2 g/L, sodium glutamate 10 g/L, MgCl2 3 g/L, (NH4)2SO4 6 g/L, KH2PO4 4 g/L, KCl 2 g/L, NaCl 15 g/L, MgSO4·7H2O 5 g/L, FeCl3 0.1 g/L. Cultural method: the strain was inoculated into seed medium with inoculation amount of 5% (v/v), cultured in a 500 mL shake flask for 24 h to log phase under 170 r at 25° C., and inoculated into the fermentation medium with addition of a certain amount of trehalose (such as 10 mmol/L, 40 mmol/L, 80 mmol/L) in inoculation amount of 9% (v/v); fermentation ceased when glucose reached an amount of 0 g/L. The results are shown in Table 2.

With `OC[C@H]1O[C@H](O[C@H]2O[C@H](CO)[C@@H](O)[C@H](O)[C@H]2O)[C@H](O)[C@@H](O)[C@@H]1O` [trehalose] as the compound, how does the “increase of DHA yield” value (appropriate amount of trehalose, versus no addition) read?
The value was 92%.

And the DHA yield (appropriate amount of trehalose, increased from 3.9 g/L)?
The DHA yield was 7.5 g/L.

What about the “yield of total fatty acids” value (appropriate amount of trehalose, increased from 8.8 g/L) of the same compound?
The value was 16.7 g/L.

And the “ratio of DHA in total biomass” value (appropriate amount of trehalose, increased from 57)?
Its value is 99 mg/g.

And the Biomass (appropriate amount of trehalose, increased from 60 g/L)?
Its Biomass is 76 g/L.

And the “ARA (% total fatty acids)” value (exogenous trehalose 10 mM)?
The value was 0.6 % total fatty acids.

What about the Biomass (exogenous trehalose 10 mM) of the same compound?
Its Biomass is 70 g/L.

And the “C14:0 (% total fatty acids)” value (exogenous trehalose 10 mM)?
The value was 9.5 % total fatty acids.

What about the “C16:0 (% total fatty acids)” value (exogenous trehalose 10 mM) of the same compound?
The value was 22.3 % total fatty acids.

What about the “DHA (% total fatty acids)” value (exogenous trehalose 10 mM) of the same compound?
The value was 44.8 % total fatty acids.

And the “DHA (mg/g biomass)” value (exogenous trehalose 10 mM)?
Its value is 57.1 mg/g biomass.

What about the DHA yield (exogenous trehalose 10 mM) of the same compound?
Its DHA yield is 4 g/L.

And the “DPA (% total fatty acids)” value (exogenous trehalose 10 mM)?
The value was 12.3 % total fatty acids.

And the “EPA (% total fatty acids)” value (exogenous trehalose 10 mM)?
Its value is 1.6 % total fatty acids.

What about the “Others (% total fatty acids)” value (exogenous trehalose 10 mM) of the same compound?
The value was 8.1 % total fatty acids.

And the “Squalene (% total fatty acids)” value (exogenous trehalose 10 mM)?
The value was 0.8 % total fatty acids.

And the “Total fatty acid yield” value (exogenous trehalose 10 mM)?
Its value is 8.9 g/L.

What about the “ARA (% total fatty acids)” value (exogenous trehalose 40 mM) of the same compound?
The value was 1.9 % total fatty acids.

What about the Biomass (exogenous trehalose 40 mM) of the same compound?
The Biomass was 74 g/L.

And the “C14:0 (% total fatty acids)” value (exogenous trehalose 40 mM)?
The value was 9.6 % total fatty acids.

What about the “C16:0 (% total fatty acids)” value (exogenous trehalose 40 mM) of the same compound?
Its value is 21.3 % total fatty acids.

What about the “DHA (% total fatty acids)” value (exogenous trehalose 40 mM) of the same compound?
The value was 47.4 % total fatty acids.

What about the “DHA (mg/g biomass)” value (exogenous trehalose 40 mM) of the same compound?
Its value is 56.6 mg/g biomass.

And the DHA yield (exogenous trehalose 40 mM)?
The DHA yield was 4.2 g/L.

And the “DPA (% total fatty acids)” value (exogenous trehalose 40 mM)?
Its value is 12.6 % total fatty acids.

What about the “EPA (% total fatty acids)” value (exogenous trehalose 40 mM) of the same compound?
Its value is 1.8 % total fatty acids.

What about the “Others (% total fatty acids)” value (exogenous trehalose 40 mM) of the same compound?
The value was 4.5 % total fatty acids.

And the “Squalene (% total fatty acids)” value (exogenous trehalose 40 mM)?
Its value is 0.9 % total fatty acids.

What about the “Total fatty acid yield” value (exogenous trehalose 40 mM) of the same compound?
Its value is 8.9 g/L.

What about the “ARA (% total fatty acids)” value (exogenous trehalose 80 mM) of the same compound?
Its value is 1.2 % total fatty acids.

What about the Biomass (exogenous trehalose 80 mM) of the same compound?
Its Biomass is 76 g/L.

What about the “C14:0 (% total fatty acids)” value (exogenous trehalose 80 mM) of the same compound?
Its value is 10.7 % total fatty acids.

What about the “C16:0 (% total fatty acids)” value (exogenous trehalose 80 mM) of the same compound?
Its value is 23.2 % total fatty acids.

What about the “DHA (% total fatty acids)” value (exogenous trehalose 80 mM) of the same compound?
The value was 45 % total fatty acids.

And the “DHA (mg/g biomass)” value (exogenous trehalose 80 mM)?
Its value is 99.3 mg/g biomass.

What about the DHA yield (exogenous trehalose 80 mM) of the same compound?
Its DHA yield is 7.5 g/L.

And the “DPA (% total fatty acids)” value (exogenous trehalose 80 mM)?
Its value is 12.2 % total fatty acids.

What about the “EPA (% total fatty acids)” value (exogenous trehalose 80 mM) of the same compound?
Its value is 1.3 % total fatty acids.

And the “Others (% total fatty acids)” value (exogenous trehalose 80 mM)?
The value was 5.5 % total fatty acids.

And the “Squalene (% total fatty acids)” value (exogenous trehalose 80 mM)?
The value was 0.9 % total fatty acids.

And the “Total fatty acid yield” value (exogenous trehalose 80 mM)?
The value was 16.7 g/L.

What about the “ARA (% total fatty acids)” value (exogenous trehalose 160 mM) of the same compound?
The value was 1.0 % total fatty acids.

And the Biomass (exogenous trehalose 160 mM)?
Its Biomass is 78 g/L.

And the “C14:0 (% total fatty acids)” value (exogenous trehalose 160 mM)?
Its value is 11.0 % total fatty acids.

What about the “C16:0 (% total fatty acids)” value (exogenous trehalose 160 mM) of the same compound?
The value was 22.5 % total fatty acids.

And the “DHA (% total fatty acids)” value (exogenous trehalose 160 mM)?
Its value is 43.2 % total fatty acids.

What about the “DHA (mg/g biomass)” value (exogenous trehalose 160 mM) of the same compound?
Its value is 89.7 mg/g biomass.

And the DHA yield (exogenous trehalose 160 mM)?
Its DHA yield is 7 g/L.

And the “DPA (% total fatty acids)” value (exogenous trehalose 160 mM)?
Its value is 12.1 % total fatty acids.

What about the “EPA (% total fatty acids)” value (exogenous trehalose 160 mM) of the same compound?
The value was 1.4 % total fatty acids.

What about the “Others (% total fatty acids)” value (exogenous trehalose 160 mM) of the same compound?
Its value is 8.3 % total fatty acids.

And the “Squalene (% total fatty acids)” value (exogenous trehalose 160 mM)?
Its value is 0.5 % total fatty acids.

What about the “Total fatty acid yield” value (exogenous trehalose 160 mM) of the same compound?
Its value is 16.2 g/L.

What about the Biomass (exogenous trehalose 200 mM) of the same compound?
The Biomass was 81 g/L.

And the “C14:0 (% total fatty acids)” value (exogenous trehalose 200 mM)?
Its value is 11.7 % total fatty acids.

And the “C16:0 (% total fatty acids)” value (exogenous trehalose 200 mM)?
Its value is 21.5 % total fatty acids.

And the “DHA (% total fatty acids)” value (exogenous trehalose 200 mM)?
The value was 41.7 % total fatty acids.

And the “DHA (mg/g biomass)” value (exogenous trehalose 200 mM)?
The value was 78 mg/g biomass.

And the DHA yield (exogenous trehalose 200 mM)?
The DHA yield was 6.3 g/L.

What about the “DPA (% total fatty acids)” value (exogenous trehalose 200 mM) of the same compound?
Its value is 11.5 % total fatty acids.

And the “EPA (% total fatty acids)” value (exogenous trehalose 200 mM)?
The value was 1.4 % total fatty acids.

What about the “Others (% total fatty acids)” value (exogenous trehalose 200 mM) of the same compound?
The value was 12.2 % total fatty acids.

What about the “Total fatty acid yield” value (exogenous trehalose 200 mM) of the same compound?
Its value is 15.1 g/L.

What about the “ARA (% total fatty acids)” value (exogenous trehalose 280 mM) of the same compound?
Its value is 1.0 % total fatty acids.

And the Biomass (exogenous trehalose 280 mM)?
Its Biomass is 76 g/L.

What about the “C14:0 (% total fatty acids)” value (exogenous trehalose 280 mM) of the same compound?
The value was 11.1 % total fatty acids.

What about the “C16:0 (% total fatty acids)” value (exogenous trehalose 280 mM) of the same compound?
Its value is 22.7 % total fatty acids.

And the “DHA (% total fatty acids)” value (exogenous trehalose 280 mM)?
The value was 39.1 % total fatty acids.

What about the “DHA (mg/g biomass)” value (exogenous trehalose 280 mM) of the same compound?
Its value is 29 mg/g biomass.

And the DHA yield (exogenous trehalose 280 mM)?
Its DHA yield is 2.2 g/L.

And the “DPA (% total fatty acids)” value (exogenous trehalose 280 mM)?
Its value is 10.8 % total fatty acids.

What about the “EPA (% total fatty acids)” value (exogenous trehalose 280 mM) of the same compound?
Its value is 7.7 % total fatty acids.

And the “Others (% total fatty acids)” value (exogenous trehalose 280 mM)?
Its value is 7.6 % total fatty acids.

And the “Total fatty acid yield” value (exogenous trehalose 280 mM)?
The value was 5.6 g/L.
